Results reported in PMC12124721, “Impact of Fluorine Pattern on Lipophilicity and Acid–Base Properties of 2‑(Thiofluoroalkyl)pyridines: Insights from Experiments and Statistical Modeling” (Journal of Medicinal Chemistry, 2025).
“And” between values parts separate entries of the source, which are not always exact repeats. Equal values may be shown once. “Also recorded” adds a separate entry of the source. Each block holds one compound with its values, some of them ahead of it.

Legend:
[1] = pKa of conjugate acid by 1H NMR titration (nonfluorinated analogues); type: physicochemical; details: aqueous solutions of different pH, conjugate acid (pyridinium), water
Experimental: (§1) The measurements were conducted on the corresponding conjugate acids of the thiofluoroalkylpyridines using an ^19F NMR method developed by Leito and coworkers. For nonfluorinated analogues, pK a was determined by an analogous method using ^1H NMR. […] Likewise, internal difluorination of the thioethyl group led to a more acidic pyridinium (9, pK a 2.05) compared to terminal difluorination (6, pK a 2.43). […] Computationally, it is straightforward to determine pK a values for molecular organic systems, obtaining quantitative predictions via fitting to experimental data (Table S12).
A protocol developed by the group of Leito was followed for the determination of the […] of fluorinated 2-substituted pyridines using ^19F NMR. […] Next, the tube was caped and shaken vigorously, and the pH of the resulting solution was measured inside the tube with a pH meter with an NMR-tube probe. […] Next, a standard ^19F NMR experiment was recorded to determine the chemical shifts of the external standard and the sample of interest. […] The battery of NMR samples at different pH values was measured. • Data processing: using MestReNova NMR software, the chemical shifts of the pyridines were determined. […] Next, the selected signal for each pyridine was plotted against the pH of the measured solution. […]

[2] = logD7.4 by shake-flask HPLC-UV for nonfluorinated pyridines; type: physicochemical; details: for logD: 1-octanol/phosphate buffer, pH 7.4, 1-octanol/phosphate buffer pH 7.4, HPLC-UV; for logD / logD7.4: nonfluorinated pyridines, mean of three; for logD7.4: 1-octanol/phosphate buffer pH 7.4, HPLC-UV; for logD (single sample A, B, C): Table S2, individual HPLC-UV partitionings at different buffer:octanol volume ratios, pH 7.4
Experimental: A protocol described by Ràfols and coworkers was followed for the determination of the log D ^7.4 values of the nonfluorinated pyridines. The 4-step process was replicated three times for each compound: • Stocksolution preparation: in a 12 mL vial, 15 mg of the pyridine was charged. Then, 6 mL of phosphate buffer at pH 7.4 was added, and the mixture was vigorously shaken for 2 h. An aliquot of this stock solution was measured by HPLC-UV. • Partitioning: three partitioning experiments were carried out for each compound. To prepare an experiment, in a vial containing a magnetic stir bar, a known amount of the stock solution was introduced, followed by another known amount of 1-octanol. Next, the biphasic mixture was stirred for 2 h and left to stand overnight to allow phase partition. For the selection of the different volume ratios, it was followed reported recommendations, although 1:1, 10:1, and 1:10 octanol:stock solutions were usually employed. • Sample preparation and measurement: to prepare the sample, 0.1 mL of the aqueous phase was taken and introduced in a 2 mL vial, following the precautions described in the previous section. The samples were then analyzed with the same HPLC-UV method as that of the stock solution. The log D ^7.4 value was obtaining by comparing the initial amount of pyridine in the aqueous phase before and after partitioning, taking into consideration the volume rates.

[3] = pKa of conjugate acid by 19F NMR titration (Leito method); type: physicochemical; details: aqueous solutions of different pH, conjugate acid (pyridinium), water
Experimental: as §1
A protocol developed by the group of Leito was followed for the determination of the […] of fluorinated 2-substituted pyridines using ^19F NMR. […] Next, the tube was caped and shaken vigorously, and the pH of the resulting solution was measured inside the tube with a pH meter with an NMR-tube probe. This procedure was repeated for all of the aqueous solutions to have a battery of NMR tubes at different pH values. If needed, additional solutions were prepared to ensure a continuum of pH values. • Sample measurement: for ^19F NMR measurements, a 3 mm NMR tube containing a solution of 8 mg of KF in 1 mL of D2O was inserted into the NMR tube of interest to serve as an external standard. Next, a standard ^19F NMR experiment was recorded to determine the chemical shifts of the external standard and the sample of interest. For the ^1H method, the same protocol was applied by changing the external standard for 5 μL of trifluoroethanol instead of KF. The battery of NMR samples at different pH values was measured. • Data processing: using MestReNova NMR software, the chemical shifts of the pyridines were determined. For ^19F NMR experiments, the KF reference was set to −125.00 ppm, and the closest ^19F signal of the pyridine was chosen for the chemical shift determination. For ^1H NMR experiments, the trifluoroethanol reference (CF3CH2OH) was set to 3.14 ppm, and the methyl signals of the nonfluorinated pyridines were chosen for the chemical shift determination. Next, the selected signal for each pyridine was plotted against the pH of the measured solution. Using Prism GraphPad software, a sigmoidal curve was adjusted, and the second derivate was performed to obtain the pK a value of the given pyridine.

[4] = logD7.4 by 19F NMR shake-flask partitioning (Linclau method); type: physicochemical; details: for logD: 1-octanol/phosphate buffer; for logD (single replicate): Table S1, individual 19F NMR partitioning experiments
Experimental: LogD ^7.4 (pH 7.4) measurements of the 2-(thiofluoroalkyl)-pyridines were conducted according to a method developed by Linclau and coworkers, a variation on the traditional “shake-flask” partitioning between octanol and water. Together with a fluorinated internal standard of known lipophilicity, simple ^19F NMR experiments allowed for the calculation of the logD ^7.4 value of the compound of interest through integration of NMR signals in each phase. During our experiments, no difference between logD ^7.4 and logP values was observed, probably due to the low basicity of the pyridines. Nonetheless, for the sake of consistency, logD ^7.4 was deemed the appropriate parameter for evaluating lipophilicity.
A protocol developed by the group of Linclau was followed for the determination of the log D ^7.4 values of the 2-substituted pyridines. The 4-step process was replicated three times for each compound: • Partitioning: to a 10 mL pear-shaped flask were added 2 mL of 1-octanol, 2-substituted pyridine (1–10 mg), trifluoroethanol (5 μL), and 2 mL of phosphate buffer (pH 7.4). The resulting mixture was stirred at 25 °C for 2 h by controlling the temperature by an immersion cooler, and then, it was left to stand at 25 °C overnight to enable complete phase separation. • Sample preparation: using a 1 mL disposable syringe, an aliquot of 0.6 mL was carefully taken from the aqueous or the 1-octanol phase. Next, the needle was carefully wiped with a dry tissue, and the aliquot was placed into an NMR tube, followed by addition of 0.1 mL of acetone-d 6. The NMR tubes were sealed using a rubber septum stopper and shaken to obtain a homogeneous solution for NMR measurement. When taking an aliquot of the lower water phase, to avoid the contamination of the syringe with the upper octanol phase, 0.05 mL of air was taken into the syringe before putting the needle into the solution, and while immersing it through the upper octanol layer, the air was gently pushed out. Upon reaching the water phase, all air bubbles are pushed out of the syringe, the aliquot is taken, and the needle is quickly removed from the solution. Then, a small amount of the water phase was discarded to ensure all traces of octanol are out of the needle, leaving a 0.6 mL sample in the syringe. • NMR measurement: fluorine (^19F{1H} NMR) nuclear magnetic resonance spectra were recorded on a Varian Mercury spectrometer or Bruker Avance Ultrashield (376.5 MHz for ^19F NMR). Parameters used in the determination of lipophilicities were obtained from the experiments carried out by Linclau and coworkers. First, the sealed tube was inserted to the NMR spectrometer, and following automatic locking and gradient shimming, a simple ^19F spectrum was recorded on the nonspinning sample to assess the required spectral width (SW) and frequency offset point (O1P). The O1P is centered between the two diagnostic F signals, and the spectral width (SW) is left at 200 ppm (it can be reduced if a better S/N ratio is required). Then, the 90° pulse was measured with the automated pulsecal routine obtaining a power (PW) of 16 μs. The measured 90° pulse, SW, and O1P were transferred into the inversion–recovery experiment. For practical purposes, it is recommended to use a D1 of 30 s for the octanol sample and of 60 s for the water sample as pulse delay, given the D1 value should be greater than 5*T1 for quantitative integration. The number of transients (NS) is selected for each sample to afford a suitable signal-to-noise ratio (SNR should be >250). • Data processing:data were processed using Mestre Nova NMR software. The obtained FID file was reprocessed using the following conditions: WFunction (LB = 2, exponential), zero filling (increasing points from 65,536 to 262,144) and then Fourier transform, followed by phasing with mouse and auto baseline correction. The integration ratio was obtained by manual integration.

[5] = stability in aqueous media during logD measurement; type: physicochemical; details: during logD7.4 measurement period
From the text: The computational model can also be employed to predict the lipophilicity of experimentally undetermined compounds such as pyridines 21 and 22 (Figure ).

[6] = parameters: method as in earlier work; details: thiofluoroalkyl benzenes; logP (=logD7.4) measured indirectly by HPLC retention times; ref 36 (SI), O'Hagan group; cited from earlier work
[7] = pH 7.4, 1-octanol/phosphate buffer pH 7.4, 25 °C, trifluoroethanol reference, 19F NMR, mean of three, read-out: logD7.4
[8] = pH 7.4, Table S1, individual 19F NMR partitioning experiments, pH 7.4, read-out: logD (single replicate)

logD [2]: -0.43
logD (single sample A, B, C) [2]: -0,407 and -0,414 and -0,469
SMILES: CS(=O)(=O)c1ccccn1 [Compound 10, 2-(Methylsulfonyl)pyridine]

logD [4, 7]: 0.1
logD [4, 8]: 0.093
logD (single replicate) ([4]; pH 7.4): 0,112 and 0,084
SMILES: O=S(=O)(CF)c1ccccn1 [Compound 11, 2-((Fluoromethyl)sulfonyl)pyridine]

logD [4, 7]: 0.55
logD [4, 8]: 0.576
logD (single replicate) ([4]; pH 7.4): 0,541 and 0,538
SMILES: O=S(=O)(c1ccccn1)C(F)F [Compound 12, 2-((Difluoromethyl)sulfonyl)pyridine]

logD [4, 7]: 1.43
SMILES: O=S(=O)(c1ccccn1)C(F)(F)F [Compound 13, 2-((Trifluoromethyl)sulfonyl)pyridine]

logD [4, 7]: -0.21
logD (single replicate) ([4]; pH 7.4): -0,199 and -0,158 and -0,274
SMILES: O=S(=O)(CCF)c1ccccn1 [Compound 14, 2-((2-Fluoroethyl)sulfonyl)pyridine]

logD7.4 [2]: -0,07
logD [2]: -0.07
logD (single sample A, B, C) [2]: -0,032 and -0,070 and -0,118
SMILES: CCS(=O)(=O)c1ccccn1 [Compound 15, 2-(Ethylsulfonyl)pyridine]

logD [4, 7]: 0.31
logD [4, 8]: 0.304
logD (single replicate) ([4]; pH 7.4): 0,315 and 0,309
SMILES: O=S(=O)(CC(F)F)c1ccccn1 [Compound 16, 2-((2,2-Difluoroethyl)sulfonyl)pyridine]

logD [4, 7]: 0.79
logD [4, 8]: 0.786
logD (single replicate) ([4]; pH 7.4): 0,784 and 0,794
SMILES: CC(F)(F)S(=O)(=O)c1ccccn1 [Compound 17, 2-((1,1-Difluoroethyl)sulfonyl)pyridine]

logD [4, 7]: 0.81
logD [4, 8]: 0.813
logD (single replicate) ([4]; pH 7.4): 0,802 and 0,803
SMILES: O=S(=O)(CC(F)(F)F)c1ccccn1 [Compound 18, 2-((2,2,2-Trifluoroethyl)sulfonyl)pyridine]

logD [4, 7]: 1.43
SMILES: O=S(=O)(c1ccccn1)C(F)(F)C(F)F [Compound 19, 2-((1,1,2,2-Tetrafluoroethyl)sulfonyl)pyridine]

logD [4, 7]: 2.21
SMILES: O=S(=O)(c1ccccn1)C(F)(F)C(F)(F)F [Compound 20, 2-((Perfluoroethyl)sulfonyl)pyridine]

pKa [3]: 2.43
SMILES: FCSc1ccccn1 [Compound 21, 2-((Fluoromethyl)thio)pyridine]
stability in aqueous media [5]: decomposes in water; also recorded: decomposed in aqueous media; also recorded: water-unstable

pKa [3]: 3.08
SMILES: FCCSc1ccccn1 [Compound 22]
stability in aqueous media [5]: decomposes in water; also recorded: decomposed in aqueous media; also recorded: water-unstable

The remaining lines, values behind:

SMILES: CSc1ccccn1 [Compound 1, 2-(methylthio)pyridine]
pKa [1]: 3.69
logD [2]: 1.69

SMILES: FC(F)Sc1ccccn1 [Compound 2, 2-((Difluoromethyl)thio)pyridine]
pKa [3]: 1.7
logD [4, 7]: 1.95

SMILES: FC(F)(F)Sc1ccccn1 [Compound 3, 2-((Trifluoromethyl)thio)pyridine]
pKa [3]: 0.97
logD [4, 7]: 2.13

SMILES: CC(F)(F)Sc1ccccn1 [Compound 4, 2-((1,1-Difluoroethyl)thio)pyridine]
pKa [3]: 2.05
logD7.4 ([4]; 1-octanol/phosphate buffer pH 7.4, 25 °C, trifluoroethanol reference, 19F NMR, mean of three): 1.84
logD [4, 7]: 1.82

SMILES: CCSc1ccccn1 [Compound 5, 2-(Ethylthio)pyridine]
pKa [1]: 3.68
logD7.4 [2]: 2,26
logD [2]: 2.26

SMILES: FC(F)CSc1ccccn1 [Compound 6, 2-((2,2-Difluoroethyl)thio)pyridine]
pKa [3]: 2.43
logD [4, 7]: 2.26

SMILES: FC(F)C(F)(F)Sc1ccccn1 [Compound 7, 2-((1,1,2,2-Tetrafluoroethyl)thio)pyridine]
pKa [3]: 1.33
logD [4, 7]: 2.27

SMILES: FC(F)(F)CSc1ccccn1 [Compound 8, 2-((2,2,2-Trifluoroethyl)thio)pyridine]
pKa [3]: 1.49
logD [4, 7]: 2.71

SMILES: FC(F)(F)C(F)(F)Sc1ccccn1 [Compound 9, 2-((Perfluoroethyl)thio)pyridine]
pKa [3]: 0.94
logD [4, 7]: 2.76

SMILES: CC(F)(F)Sc1ccccc1 [SCF2CH3 Ph]
logD7.4 (Ph) [6]: 3.38

SMILES: FC(F)(F)Sc1ccccc1 [SCF3 Ph]
logD7.4 (Ph) [6]: 3.70

SMILES: FC(F)(F)CSc1ccccc1 [SCH2CF3 Ph]
logD7.4 (Ph) [6]: 3.30

SMILES: CCSc1ccccc1 [SCH2CH3 Ph]
logD7.4 (Ph) [6]: 3.42

SMILES: CSc1ccccc1 [SCH3 Ph]
logD7.4 (Ph) [6]: 2.87
